The target of experiment [1] is T1, Neuropeptides B/W receptor type 1 (Homo sapiens, UniProt P48145).
T1 sequence (P48145 whole entry): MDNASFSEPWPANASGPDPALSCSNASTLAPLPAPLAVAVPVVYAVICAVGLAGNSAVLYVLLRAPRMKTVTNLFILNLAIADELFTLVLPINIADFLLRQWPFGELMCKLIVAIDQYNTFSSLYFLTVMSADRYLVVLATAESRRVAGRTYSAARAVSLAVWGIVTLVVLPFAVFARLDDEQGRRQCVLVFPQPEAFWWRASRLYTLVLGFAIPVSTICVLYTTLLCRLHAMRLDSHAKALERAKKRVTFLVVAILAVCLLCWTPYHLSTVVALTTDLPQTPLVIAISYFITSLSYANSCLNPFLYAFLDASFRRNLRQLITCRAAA
The experiment is described as follows: GPR7 antagonist potency, late-stage follow-up, cell-based, fluorescence, dose response, set 5 (AID 588566). The experiment is classed as functional.

Experiment [2] concerns the target Melanin-concentrating hormone receptor 1 (Homo sapiens, UniProt Q99705). The experiment can be described thus: Late-stage fluorescence-based counterscreen for antagonists of the G-protein coupled receptor 7 (GPR7): cell-based dose response assay to identify antagonists of the melanin-concentrating hormone receptor 1 (MCHR1) Set 5. The experiment is classed as functional.

Experiment [3] in a line: HepG2 cell cytotoxicity, dose response, cytotoxicity control for Shn3 inhibitor project, CellTiter-Glo, cherry-picked (AID 624134). Type of experiment: functional, cell-based.
Experiment [4] can be described thus: control 3'UTR Renilla luciferase suppression, dose response, counter-screen for Shn3 inhibitor project, cell-based, Clone20-Shn3RL, cherry-picked (AID 624133). Type of experiment: functional.
Experiment [5] deals with G-protein coupled receptor 35 (Homo sapiens, UniProt Q9HC97). The experiment is described as follows: GPR35 antagonists blocking zaprinast-driven arrestin recruitment, primary screen, imaging, U2OS, beta-arrestin-GFP, zaprinast agonist (AID 2058).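 Also: antagonist potency meaning inhibition of agonist-induced arrestin redistribution.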 The experiment is classed as functional.
Sequence of G-protein coupled receptor 35 (Q9HC97 whole entry): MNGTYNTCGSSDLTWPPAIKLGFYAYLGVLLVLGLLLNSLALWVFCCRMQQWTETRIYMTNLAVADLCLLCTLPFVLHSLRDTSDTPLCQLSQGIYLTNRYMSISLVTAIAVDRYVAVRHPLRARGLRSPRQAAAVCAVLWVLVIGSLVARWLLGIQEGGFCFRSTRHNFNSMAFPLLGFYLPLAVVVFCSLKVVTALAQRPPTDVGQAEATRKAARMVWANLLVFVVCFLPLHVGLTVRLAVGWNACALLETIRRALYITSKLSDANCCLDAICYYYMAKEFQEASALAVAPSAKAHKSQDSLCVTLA
Experiment [6] in a line: nonselective inhibitors of cellular cAMP signaling, dose response, counter-screen for MC4R biased antagonist project, cell-based, TR-FRET cAMP detection (AID 602305).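 Also: U2OS cells stimulated with forskolin near its EC80 as the cAMP inducer; potency is for inhibition of forskolin-stimulated cAMP signaling.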 Type of experiment: functional.
The test system of experiment [7] is Escherichia coli. The experiment can be described thus: microbe, parasite or virus in culture.
Experiment [8] can be described thus: Shn3 3'UTR reporter inhibitors, dose response, cell-based, Clone20 osteoblasts, firefly luciferase, cherry-picked (AID 624132).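 Also: firefly luciferase luminescence from reporter carrying the Shn3 3'UTR in osteoblasts.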 The experiment is classed as functional.
Experiment [9] has as its target Heat shock protein HSP 90-alpha (Homo sapiens, UniProt P07900). The experiment is classed as functional, organism-based.
Experiment [10] has as its target T2, V-type proton ATPase subunit c' (Saccharomyces cerevisiae S288c, UniProt P32842). The experiment is described as follows: Dose Response of Small Molecules that Regulate V-ATPase Proton Transport in Yeast using pHLuorin, Cherry Pick 2. The experiment is classed as functional. Particulars: read-out: EC50_MICROM.
For experiment [11], the target named is T3, Kappa-type opioid receptor (Homo sapiens, UniProt P41145). Type of experiment: functional.
T3 sequence (P41145 whole entry): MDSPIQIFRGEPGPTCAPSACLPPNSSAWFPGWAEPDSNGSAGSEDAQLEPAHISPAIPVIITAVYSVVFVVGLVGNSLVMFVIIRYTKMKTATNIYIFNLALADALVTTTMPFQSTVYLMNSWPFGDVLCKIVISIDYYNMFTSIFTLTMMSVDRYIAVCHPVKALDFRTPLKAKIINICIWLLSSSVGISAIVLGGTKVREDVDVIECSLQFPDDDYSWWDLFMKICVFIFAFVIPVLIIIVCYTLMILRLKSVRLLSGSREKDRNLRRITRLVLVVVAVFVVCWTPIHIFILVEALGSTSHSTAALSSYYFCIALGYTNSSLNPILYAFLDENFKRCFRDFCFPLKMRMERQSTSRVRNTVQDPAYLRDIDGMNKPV
Experiment [12] deals with Melanocortin receptor 4 (Homo sapiens, UniProt P32245). The experiment can be described thus: MC4R antagonist potency on cAMP, dose response, cell-based, TR-FRET, biased antagonists (AID 602298).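 Also: antagonist potency against agonist-stimulated cAMP production.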 Type of experiment: functional.
In experiment [13] the target is T4, Delta-type opioid receptor (Homo sapiens, UniProt P41143). The experiment is described as follows: HTS Image-Based Screen for Agonists of the DOR Receptor. [Related pubchem assays (depositor defined):AID1777, AID1786, AID2133]. The experiment is classed as functional.
T4 sequence (P41143 whole entry): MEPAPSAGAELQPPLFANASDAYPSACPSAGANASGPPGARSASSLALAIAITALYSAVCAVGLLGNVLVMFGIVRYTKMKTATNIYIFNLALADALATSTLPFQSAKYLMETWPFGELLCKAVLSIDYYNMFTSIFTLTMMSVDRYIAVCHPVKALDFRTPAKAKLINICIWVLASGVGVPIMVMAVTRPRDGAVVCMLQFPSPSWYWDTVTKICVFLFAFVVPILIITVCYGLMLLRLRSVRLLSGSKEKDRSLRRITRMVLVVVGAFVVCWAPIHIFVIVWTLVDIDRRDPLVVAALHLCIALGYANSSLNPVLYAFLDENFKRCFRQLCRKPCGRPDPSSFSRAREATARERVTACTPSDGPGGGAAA
The subject of experiment [14] is Escherichia coli. The experiment is described as follows: microbe, parasite or virus in culture. This is another data set of the same source.
Experiment [15] addresses T2, V-type proton ATPase subunit c'. The experiment can be described thus: Dose Response of Small Molecules that Regulate V-ATPase Proton Transport in Yeast using pHLuorin, Cherry Pick 1. [Related pubchem assays (depositor defined):AID504622]. Type of experiment: functional.
Experiment [16] deals with T3, Kappa-type opioid receptor. Type of experiment: functional. The source holds these as a separate data set.
In experiment [17] the target is T5, Rac GTPase-activating protein 1 (Homo sapiens, UniProt Q9H0H5).
T5 sequence (Q9H0H5 whole entry): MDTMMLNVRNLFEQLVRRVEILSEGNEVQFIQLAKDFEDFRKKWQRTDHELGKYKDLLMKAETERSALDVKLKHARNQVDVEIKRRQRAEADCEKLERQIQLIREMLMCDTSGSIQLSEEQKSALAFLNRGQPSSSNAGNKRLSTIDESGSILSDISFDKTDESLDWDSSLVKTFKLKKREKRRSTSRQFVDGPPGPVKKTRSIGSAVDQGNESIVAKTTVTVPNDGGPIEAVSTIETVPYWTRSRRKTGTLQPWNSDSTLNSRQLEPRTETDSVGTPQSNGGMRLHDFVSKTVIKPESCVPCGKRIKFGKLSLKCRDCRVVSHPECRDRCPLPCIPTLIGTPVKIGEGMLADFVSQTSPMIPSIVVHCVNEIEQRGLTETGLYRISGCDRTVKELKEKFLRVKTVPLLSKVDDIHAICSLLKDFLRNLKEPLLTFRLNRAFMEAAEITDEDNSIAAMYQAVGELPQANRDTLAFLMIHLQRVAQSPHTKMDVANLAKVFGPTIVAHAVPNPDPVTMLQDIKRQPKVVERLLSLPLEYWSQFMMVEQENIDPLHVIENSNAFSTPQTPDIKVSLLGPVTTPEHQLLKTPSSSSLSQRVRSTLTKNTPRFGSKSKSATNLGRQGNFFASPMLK
The experiment is described as follows: MgcRacGAP GTPase-activating activity inhibitors, confirmation, biochemical, ADP Hunter fluorescence, primary and confirmatory (AID 624330). The experiment is classed as functional.

Experiment [18] deals with T6, Bifunctional protein GlmU (Mycobacterium tuberculosis, UniProt P9WMN3).
T6 sequence (P9WMN3 whole entry): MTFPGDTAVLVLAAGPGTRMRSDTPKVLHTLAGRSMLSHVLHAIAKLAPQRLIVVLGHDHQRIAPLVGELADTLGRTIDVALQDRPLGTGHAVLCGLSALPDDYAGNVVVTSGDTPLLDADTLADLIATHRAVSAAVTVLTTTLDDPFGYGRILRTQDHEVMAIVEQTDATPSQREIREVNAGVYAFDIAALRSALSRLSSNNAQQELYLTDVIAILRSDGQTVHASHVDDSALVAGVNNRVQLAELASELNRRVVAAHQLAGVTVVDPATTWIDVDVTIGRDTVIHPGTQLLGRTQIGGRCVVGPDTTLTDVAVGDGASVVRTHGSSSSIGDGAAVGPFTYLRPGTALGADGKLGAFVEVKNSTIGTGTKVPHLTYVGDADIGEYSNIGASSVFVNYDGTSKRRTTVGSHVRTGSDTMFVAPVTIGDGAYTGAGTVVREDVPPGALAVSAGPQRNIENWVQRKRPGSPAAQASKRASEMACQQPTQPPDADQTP
The experiment can be described thus: Inhibitors of Mycobacterial Glucosamine-1-phosphate acetyl transferase (GlmU). Secondary screen. Details: species or system Mycobacterium tuberculosis H37Rv.

Experiment [19] concerns the target T4, Delta-type opioid receptor. The experiment can be described thus: HTS Image-Based Screen for Antagonists of the DOR Receptor. [Related pubchem assays (depositor defined):AID1777, AID1785, AID1786, AID2133]. The experiment is classed as functional.
In experiment [20] the target is Mu-type opioid receptor (Homo sapiens, UniProt P35372). The experiment can be described thus: HTS Image-Based Screen for Agonists of the MOR Receptor. [Related pubchem assays (depositor defined):AID1777, AID1785, AID1786, AID2133]. The experiment is classed as functional.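 Also: imaging of beta-arrestin GFP recruitment into spots after receptor activation.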
Experiment [21] in a line: HeLa cell cytotoxicity, dose response, cytotoxicity control for MgcRacGAP inhibitor project (AID 624300). Type of experiment: functional.
In experiment [22] the target is T7, Mannose-6-phosphate isomerase (Homo sapiens, UniProt P34949).
T7 sequence (P34949 whole entry): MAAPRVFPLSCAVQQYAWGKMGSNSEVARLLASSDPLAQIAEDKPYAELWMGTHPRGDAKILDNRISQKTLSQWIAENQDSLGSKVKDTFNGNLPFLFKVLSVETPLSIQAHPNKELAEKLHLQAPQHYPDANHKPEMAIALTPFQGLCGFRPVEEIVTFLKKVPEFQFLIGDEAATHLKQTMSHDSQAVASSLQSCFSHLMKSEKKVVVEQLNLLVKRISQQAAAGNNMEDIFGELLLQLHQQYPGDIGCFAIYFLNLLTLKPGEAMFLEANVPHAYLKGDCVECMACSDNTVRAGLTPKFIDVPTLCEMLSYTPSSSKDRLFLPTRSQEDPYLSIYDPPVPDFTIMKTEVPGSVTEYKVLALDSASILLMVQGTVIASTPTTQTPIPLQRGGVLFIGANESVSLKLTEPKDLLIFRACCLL
The experiment is described as follows: inhibitors of human PMI, primary screen, biochemical, fluorescence intensity, coupled assay (AID 1209).

Experiment [23] has as its target Tyrosine-protein kinase Lck (Homo sapiens, UniProt P06239). The experiment is classed as functional.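 Also: lck was assayed as one member of a kinase panel.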
Experiment [24] has as its target Tyrosine-protein kinase ABL1 (Homo sapiens, UniProt P00519). Type of experiment: functional.
Experiment [25] has as its target Tyrosine-protein kinase Blk (Homo sapiens, UniProt P51451). Type of experiment: functional.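 Also: obtained as one member of a kinome-wide kinase assay panel.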
In experiment [26] the target is Vascular endothelial growth factor receptor 2 (Homo sapiens, UniProt P35968). Type of experiment: functional.
For experiment [27], the target named is Vascular endothelial growth factor receptor 1 (Homo sapiens, UniProt P17948). The experiment is classed as functional.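 Also: measured within a kinome-wide profiling panel, FLT1 as the panel member.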
The target of experiment [28] is Tyrosine-protein kinase Fyn (Homo sapiens, UniProt P06241). Type of experiment: functional.
Sequence of Tyrosine-protein kinase Fyn (P06241 whole entry): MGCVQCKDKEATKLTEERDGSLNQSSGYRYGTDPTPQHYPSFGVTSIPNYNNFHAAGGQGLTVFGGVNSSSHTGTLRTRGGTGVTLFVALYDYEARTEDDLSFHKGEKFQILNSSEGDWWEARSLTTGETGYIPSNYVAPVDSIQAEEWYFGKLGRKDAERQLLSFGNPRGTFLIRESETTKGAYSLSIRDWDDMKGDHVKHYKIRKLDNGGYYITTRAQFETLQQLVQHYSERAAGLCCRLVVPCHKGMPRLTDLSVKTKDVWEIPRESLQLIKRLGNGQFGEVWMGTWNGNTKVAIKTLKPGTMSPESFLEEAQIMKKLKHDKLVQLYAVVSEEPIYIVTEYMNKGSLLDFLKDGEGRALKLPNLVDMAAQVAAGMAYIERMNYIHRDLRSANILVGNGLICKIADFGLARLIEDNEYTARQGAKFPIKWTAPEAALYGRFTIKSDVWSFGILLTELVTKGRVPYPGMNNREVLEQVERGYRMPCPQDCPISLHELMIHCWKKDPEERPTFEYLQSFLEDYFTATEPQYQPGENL
Experiment [29] has as its target Macrophage colony-stimulating factor 1 receptor (Homo sapiens, UniProt P07333). The experiment is classed as functional.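 Also: value comes from the Navigating the Kinome screening panel, CSF1R member.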
The target of experiment [30] is Proto-oncogene tyrosine-protein kinase Src (Homo sapiens, UniProt P12931). The experiment is classed as functional.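 Also: SRC entry within a kinome-wide kinase profiling panel.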
Sequence of Proto-oncogene tyrosine-protein kinase Src (P12931 2-536 limits assumed): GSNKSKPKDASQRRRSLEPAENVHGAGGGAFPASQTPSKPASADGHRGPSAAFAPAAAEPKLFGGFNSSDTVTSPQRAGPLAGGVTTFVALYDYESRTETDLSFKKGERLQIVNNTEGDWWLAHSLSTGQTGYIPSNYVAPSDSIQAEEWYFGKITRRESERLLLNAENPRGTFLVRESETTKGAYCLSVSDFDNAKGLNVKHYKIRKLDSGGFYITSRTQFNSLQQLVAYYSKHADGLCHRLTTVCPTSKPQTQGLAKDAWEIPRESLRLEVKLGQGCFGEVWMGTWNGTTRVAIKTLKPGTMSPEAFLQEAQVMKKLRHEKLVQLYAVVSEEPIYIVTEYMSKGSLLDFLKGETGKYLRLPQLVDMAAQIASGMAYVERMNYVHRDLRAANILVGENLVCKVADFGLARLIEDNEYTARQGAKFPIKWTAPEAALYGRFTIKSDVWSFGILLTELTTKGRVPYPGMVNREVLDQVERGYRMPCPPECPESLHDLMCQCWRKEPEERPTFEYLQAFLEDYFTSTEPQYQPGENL
Experiment [31] deals with Vascular endothelial growth factor receptor 3 (Homo sapiens, UniProt P35916). Type of experiment: functional.
In experiment [32] the target is Tyrosine-protein kinase Lyn (Homo sapiens, UniProt P07948). The experiment is classed as functional.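 Also: lyn as one member of a kinase panel.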
The target in experiment [33] is Receptor-type tyrosine-protein kinase FLT3 (Homo sapiens, UniProt P36888). The experiment is classed as functional.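 Also: FLT3 was tested as one member of a kinome-wide kinase panel.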
The target of experiment [34] is Mast/stem cell growth factor receptor Kit (Homo sapiens, UniProt P10721). The experiment is classed as functional.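 Also: KIT entry within a kinase panel assay.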

Active and inactive are the calls of the source.

T2 sequence (P32842 whole entry): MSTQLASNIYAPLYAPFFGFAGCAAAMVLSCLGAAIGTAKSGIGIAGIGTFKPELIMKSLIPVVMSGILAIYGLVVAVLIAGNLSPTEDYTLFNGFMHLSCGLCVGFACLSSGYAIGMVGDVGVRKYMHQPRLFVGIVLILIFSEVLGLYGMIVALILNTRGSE
Sequence of Tyrosine-protein kinase ABL1 (P00519 whole entry): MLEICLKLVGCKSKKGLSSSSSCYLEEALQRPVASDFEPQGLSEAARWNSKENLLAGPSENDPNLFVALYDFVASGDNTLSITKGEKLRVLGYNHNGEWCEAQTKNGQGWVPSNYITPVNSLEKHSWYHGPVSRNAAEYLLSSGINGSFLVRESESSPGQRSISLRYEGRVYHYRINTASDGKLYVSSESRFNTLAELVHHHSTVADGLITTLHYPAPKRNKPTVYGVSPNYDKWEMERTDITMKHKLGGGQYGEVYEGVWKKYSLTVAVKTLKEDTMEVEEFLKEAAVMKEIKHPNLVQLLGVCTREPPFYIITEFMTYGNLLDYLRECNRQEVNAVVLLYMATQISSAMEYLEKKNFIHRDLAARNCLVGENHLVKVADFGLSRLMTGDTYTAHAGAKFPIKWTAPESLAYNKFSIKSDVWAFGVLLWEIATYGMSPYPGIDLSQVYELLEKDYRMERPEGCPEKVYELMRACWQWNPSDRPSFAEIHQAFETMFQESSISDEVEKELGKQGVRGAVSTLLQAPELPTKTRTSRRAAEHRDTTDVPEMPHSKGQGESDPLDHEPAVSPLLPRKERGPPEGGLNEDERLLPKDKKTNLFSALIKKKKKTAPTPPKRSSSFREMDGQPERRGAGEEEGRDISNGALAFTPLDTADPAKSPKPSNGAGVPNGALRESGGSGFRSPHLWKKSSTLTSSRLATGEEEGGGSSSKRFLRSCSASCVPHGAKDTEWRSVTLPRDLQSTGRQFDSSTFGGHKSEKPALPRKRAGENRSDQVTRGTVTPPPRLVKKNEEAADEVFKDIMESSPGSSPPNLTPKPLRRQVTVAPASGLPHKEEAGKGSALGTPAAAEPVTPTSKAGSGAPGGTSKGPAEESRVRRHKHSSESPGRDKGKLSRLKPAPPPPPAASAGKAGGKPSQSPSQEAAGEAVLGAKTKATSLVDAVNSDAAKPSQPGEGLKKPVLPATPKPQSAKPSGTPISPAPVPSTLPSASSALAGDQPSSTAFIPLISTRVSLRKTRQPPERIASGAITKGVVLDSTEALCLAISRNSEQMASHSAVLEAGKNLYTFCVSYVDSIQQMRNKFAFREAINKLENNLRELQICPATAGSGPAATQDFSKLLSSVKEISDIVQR
Sequence of Macrophage colony-stimulating factor 1 receptor (P07333 whole entry): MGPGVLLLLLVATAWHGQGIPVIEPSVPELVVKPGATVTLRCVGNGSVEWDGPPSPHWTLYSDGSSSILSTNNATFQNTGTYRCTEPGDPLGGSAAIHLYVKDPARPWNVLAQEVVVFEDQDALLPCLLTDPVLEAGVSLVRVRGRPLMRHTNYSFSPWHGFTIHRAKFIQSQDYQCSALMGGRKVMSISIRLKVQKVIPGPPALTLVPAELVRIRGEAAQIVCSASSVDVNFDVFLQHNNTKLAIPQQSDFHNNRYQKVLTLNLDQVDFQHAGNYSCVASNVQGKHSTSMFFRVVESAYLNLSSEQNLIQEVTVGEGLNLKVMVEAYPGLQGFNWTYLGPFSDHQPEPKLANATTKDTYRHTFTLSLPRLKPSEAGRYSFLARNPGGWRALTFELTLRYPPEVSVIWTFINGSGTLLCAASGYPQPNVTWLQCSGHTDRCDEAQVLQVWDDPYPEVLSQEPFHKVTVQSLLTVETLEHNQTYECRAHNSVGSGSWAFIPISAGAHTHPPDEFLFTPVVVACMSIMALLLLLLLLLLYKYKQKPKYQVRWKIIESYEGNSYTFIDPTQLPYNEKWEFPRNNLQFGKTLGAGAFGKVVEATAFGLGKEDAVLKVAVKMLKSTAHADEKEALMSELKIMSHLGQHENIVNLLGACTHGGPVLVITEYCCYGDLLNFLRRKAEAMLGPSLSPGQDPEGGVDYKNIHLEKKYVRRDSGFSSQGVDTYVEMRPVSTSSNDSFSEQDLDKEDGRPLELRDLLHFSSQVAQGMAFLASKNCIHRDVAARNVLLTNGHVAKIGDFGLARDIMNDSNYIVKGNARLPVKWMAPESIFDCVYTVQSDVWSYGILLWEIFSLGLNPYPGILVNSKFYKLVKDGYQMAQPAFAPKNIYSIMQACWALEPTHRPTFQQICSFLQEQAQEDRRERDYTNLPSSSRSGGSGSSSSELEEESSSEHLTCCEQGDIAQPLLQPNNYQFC
Sequence of Melanin-concentrating hormone receptor 1 (Q99705 whole entry): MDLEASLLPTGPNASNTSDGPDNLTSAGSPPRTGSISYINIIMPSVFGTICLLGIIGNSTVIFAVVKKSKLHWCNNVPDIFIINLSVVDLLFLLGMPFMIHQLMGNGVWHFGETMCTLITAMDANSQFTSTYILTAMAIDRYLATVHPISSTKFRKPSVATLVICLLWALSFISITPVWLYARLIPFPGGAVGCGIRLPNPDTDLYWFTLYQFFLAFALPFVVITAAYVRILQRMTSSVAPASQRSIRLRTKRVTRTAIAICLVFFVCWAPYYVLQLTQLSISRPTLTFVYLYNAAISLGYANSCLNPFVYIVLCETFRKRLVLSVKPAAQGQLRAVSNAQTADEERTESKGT

For the molecule `N#CC(c1ccccc1)c1c(Br)cnn(Cc2cccc3ccccc23)c1=O` (centres undefined), the IC50 in experiment [1] was 0.116 µM (active); in [2], 16.4 µM (inactive).
As for `Cc1c(Cl)sn(-c2ccc(Cl)cc2)c1=O`, the AC50 was 19.8 µM (active) in experiment [3]; 3.85 µM (active) in [4]; 6.51 µM (active) in [7]; 0.728 µM (active) in [8]; < 0.195 µM (active) in [9]; 2.64 µM (active) in experiment [14]. Further, the IC50 was 2.72 µM (active) in experiment [5]; 19.6 µM (inactive) in experiment [6]; 3.75 µM (active) in experiment [12]; 49.6 µM (active) in experiment [17]; 118 µM (active) in experiment [18]; > 32 µM (inactive) in experiment [19]. In addition, the IC50 in [22] is > 50 µM (not active). For the same molecule, the EC50 in experiment [10] is 1.4 µM (active); in [11], above 35 µM; in experiment [13] it was > 32 µM (inactive); in [15], 5.19 µM (active); in experiment [16] it was 6.37 µM; in experiment [20] it was > 32 µM (inactive). Moreover, in experiment [21], the CC50 is 9.78 µM (active).
Turning to `Cc1ccc(F)c(NC(=O)Nc2ccc(-c3c(F)ccc4[nH]nc(N)c34)cc2)c1`, the Ki was 0.631 µM (active) in experiment [23]; 0.501 µM (active) in experiment [24]; 1.58 µM (active) in [25]; 0.00794 µM (active) in [26]; 0.000251 µM (active) in experiment [27]; 0.501 µM (active) in experiment [28]. The Ki was 0.00126 µM (active) in experiment [29]; 0.501 µM (active) in [30]; 0.001 µM (active) in experiment [31]; 0.398 µM (active) in [32]; 0.000794 µM (active) in experiment [33]; 0.001 µM (active) in experiment [34].
